Test results from US10669283B2, “Compound and pharmacologically acceptable salt thereof” (MEIJI SEIKA PHARMA CO., LTD., priority 2016, dated 2020).
Read-outs that look alike come from different tables or passages of the source.

Key:
[1] = Hepatic metabolic stability (rat liver microsome method); format: in vitro ADME; details: rat liver microsomes 0.5 mg/mL, test substance 1 μM, NADPH 1 mM, 37° C., 30 minutes
Description: Metabolic stability in rat liver microsomes was evaluated by the following method. In 100 mM of potassium phosphate buffer solution (pH 7.4), liver microsomes (concentration at reaction: 0.5 mg/mL) and the test substance (concentration at reaction: 1 μM) were preincubated at 37° C. Five minutes later, 100 mM of potassium phosphate buffer (pH 7.4) solution of NADPH (concentration at reaction: 1 mM) was mixed thereto to start the reaction. After a predetermined time passed, acetonitrile was mixed to the reaction mixture to stop the reaction. Here, the reaction time was 0 and 30 minutes, and drug concentration measurement was performed for each time period using LC-MS. The % remaining value of the test compound was calculated from the value for 0 minutes and the value for 30 minutes, using the calculation formula below: % Remaining=(Value for 30 Minutes/Value for 0 Minutes)×100
The results of measuring the rat liver microsome metabolic Stability (% remaining for 30-minute reaction) for the test compound by the above method were evaluated in accordance with the following evaluated basis; A: a % remaining rate of 75% or more, B: 60% or more and less than 75%, C: 45% or more and less than 60%, and D: less than 45%.

[2] = test system: PDE4; experiment: PDE4 inhibition, scintillation proximity assay (SPA); format: biochemical
How it was run: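 Scintillation proximity read-out: [2,8-3H]-cAMP hydrolysis by PDE4 ran 120 min at room temperature in Tris-HCl pH 7.4 buffer with 8.3 mM MgCl2, 1.7 mM EGTA and 3 mg/mL BSA. Bead-bound product (YSi-SPA with ZnSO4, 15 min) counted; blank lacks enzyme, control has DMSO only.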

[3] = scintillation proximity assay, class symbols, read-out: PDE4 Inhibitory Activity
[4] = scintillation proximity assay (SPA), evaluated as classes A, B, C, read-out: PDE4 Inhibitory Activity (concentration for the inhibition rate of 50%)

Structure (SMILES) | Residual ratio (% remaining for 30-minute reaction) [1] | IC50 [2, 3] | IC50 [2, 4]
O=C(c1ccc(-c2nccs2)c2oc(N3CC4CC(C3)N4)nc12)N1CCCC1 [Example 360, (2-(3,6-diazabicyclo [3.1.1]heptan-3-yl)-7-(thiazol-2-yl)benzo[d]oxazole-4-yl)(pyrrolidin-1-yl)methanone] | A (a % remaining rate of 75% or more) | 100 to 1000 nM | –
c1csc(-c2ccc(O[C@H]3CCOC3)c3nc(N4CC5CC(C4)N5)oc23)n1 [Example 323, 2-(3,6-Diazabicyclo[3.1.1]heptan-3-yl)-4-(((S)-tetrahydrofuran-3-yl)oxy)-7-(thiazol-2-yl)benzo[d]oxazole] | B (60% or more and less than 75%) | – | < 100 nM
FC(F)(F)c1c(Cl)cc(-n2cccn2)c2oc(N3CC4CC(C3)N4)nc12 [Example 17, 2-(3,6-Diazabicyclo[3.1.1]heptan-3-yl)-5-chloro-7-(1H-pyrazol-1-yl)-4-(trifluoromethyl)benzo[d]oxazole] | B (60% or more and less than 75%) | – | < 100 nM
CC(C)(O)C(F)(F)Oc1ccc(-c2ncccn2)c2oc(N3CC4CCC(C3)N4)nc12 [Example 330, 1-((2-(3,8-diazabicyclo [3.2.1]octan-3-yl)-7-(pyrimidin-2-yl)benzo [d]oxazol-4-yl)oxy)-1,1-difluoro-2-methylpropan-2-ol] | A (a % remaining rate of 75% or more) | < 100 nM | –
c1csc(-c2ccc(N3CCOCC3)c3nc(N4CC5CC(C4)N5)oc23)n1 [Example 369, 2-(3,6-diazabicyclo[3.1.1]heptan-3-yl)-4-morpholino-7-(thiazol-2-yl) benzo[d]oxazole] | B (60% or more and less than 75%) | < 100 nM | –
O=C(N1CC(O)C1)C(F)(F)Oc1ccc(-c2nccs2)c2oc(N3CC4CC(C3)N4)nc12 [Example 412, 2-((2-(3,6-diazabicyclo [3.1.1]heptan-3-yl)-7-(thiazol-2-yl)benzo[d]oxazol-4-yl)oxy)-2,2-difluoro-1-(3-hydroxy-azetidin-1-yl)ethan-1-one] | A (a % remaining rate of 75% or more) | < 100 nM | –
CC(O)(CO)C(F)(F)Oc1ccc(-c2nccs2)c2oc(N3CC4CC(C3)N4)nc12 (racemic) [Example 326, 3-((2-(3,6-Diazabicyclo[3.1.1]heptan-3-yl)-7-(thiazol-2-yl)benzo[d]oxazol-4-yl)oxy)-3,3-difluoro-2-methylpropane-1,2-diol] | A (a % remaining rate of 75% or more) | < 100 nM | –
Cc1csc(-c2ccc(OC(F)(F)C(C)(C)O)c3nc(N4CC5CC(C4)N5)oc23)n1 [Example 306, 1-((2-(3,6-Diazabicyclo[3.1.1]heptan-3-yl)-7-(4-methylthiazol-2-yl)benzo[d]oxazol-4-yl)oxy)-1,1-difluoro-2-methylpropan-2-ol] | A (a % remaining rate of 75% or more) | – | 100 to 1000 nM
CC(O)(CO)C(F)(F)Oc1ccc(-c2nccs2)c2oc(N3CC4CC(C3)N4)nc12 (single isomer, unassigned) [Example 365, 3-((2-(3,6-diazabicyclo [3.1.1]heptan-3-yl)-7-(thiazol-2-yl)benzo[d]oxazol-4-yl)oxy)-3,3-difluoro-2-methylpropane-1,2-diol] | A (a % remaining rate of 75% or more) | < 100 nM | –
CC(O)C(F)(F)Oc1ccc(-c2nccs2)c2oc(N3CC4CC(C3)N4)nc12 (single isomer, unassigned) [Example 251, 1-((2-(3,6-Diazabicyclo[3.1.1]heptan-3-yl)-7-(thiazol-2-yl)benzo[d]oxazol-4-yl)oxy)-1,1-difluoropropan-2-ol] | A (a % remaining rate of 75% or more) | – | < 100 nM
FC(F)(F)c1ccc(Oc2ccc(-c3nccs3)c3oc(N4CC5CC(C4)N5)nc23)nc1 [Example 336, 2-(3,6-diazabicyclo [3.1.1]heptan-3-yl)-7-(thiazol-2-yl)-4-((5-(trifluoromethyl)pyridin-2-yl)oxy)benzo[d]oxazole] | B (60% or more and less than 75%) | < 100 nM | –
[O-][S+](CCO)c1ccc(-c2nccs2)c2oc(N3CC4CC(C3)N4)nc12 (stereo not drawn) [Example 349, 2-((2-(3,6-diazabicyclo[3.1.1]heptan-3-yl)-7-(thiazol-2-yl)benzo [d]oxazol-4-yl)sulfinyl)ethan-1-ol] | A (a % remaining rate of 75% or more) | < 100 nM | –
O=C(NC1CC1)c1ccc(-c2nccs2)c2oc(N3CC4CC(C3)N4)nc12 [Example 357, 2-(3,6-diazabicyclo [3.1.1]heptan-3-yl)-N-cyclopropyl-7-(thiazol-2-yl) benzo[d]oxazole-4-carboxamide] | A (a % remaining rate of 75% or more) | < 100 nM | –
FC(F)(F)Oc1c(Cl)cc(-c2nccs2)c2oc(N3CC4CC(C3)N4)nc12 [Example 3, 2-(3,6-Diazabicyclo[3.1.1]heptan-3-yl)-5-chloro-7-(thiazol-2-yl)-4-(trifluoromethoxy)benzo[d]oxazole] | B (60% or more and less than 75%) | – | < 100 nM
CC(C)(O)C(F)(F)Oc1ccc(-n2cccn2)c2oc(N3CC4CCC(C3)N4)nc12 [Example 316, 1-((2-(3,8-Diazabicyclo[3.2.1]octan-3-yl)-7-(1H-pyrazol-1-yl)benzo[d]oxazol-4-yl)oxy)-1,1-difluoro-2-methylpropan-2-ol] | A (a % remaining rate of 75% or more) | – | < 100 nM
c1cnc(Oc2ccc(-c3nccs3)c3oc(N4CC5CC(C4)N5)nc23)nc1 [Example 338, 2-(3,6-diazabicyclo [3.1.1]heptan-3-yl)-4-(pyrimidin-2-yloxy)-7-(thiazol-2-yl)benzo[d]oxazole] | A (a % remaining rate of 75% or more) | < 100 nM | –
OCC(F)(F)Oc1ccc(-c2nccs2)c2oc(N3CC4CCC(C3)N4)nc12 [Example 404, 2-((2-(3,8-diazabicyclo [3.2.1]octan-3-yl) 7-(thiazol-2-yl)benzo[d]oxazol-4-yl)oxy)-2,2-difluoroethan-1-ol] | B (60% or more and less than 75%) | < 100 nM | –
CN(CCO)C(=O)c1ccc(-c2nccs2)c2oc(N3CC4CC(C3)N4)nc12 [Example 356, 2-(3,6-diazabicyclo [3.1.1]heptan-3-yl)-N-(2-hydroxyethyl)-N-methyl-7-(thiazol-2-yl)benzo[d] oxazole-4-carboxamide] | A (a % remaining rate of 75% or more) | 100 to 1000 nM | –
FC(F)(F)c1ccc(Oc2cc(-c3nccs3)c3oc(N4CC5CC(C4)N5)nc3c2)nc1 [Example 413, 2-(3,6-diazabicyclo [3.1.1]heptan-3-yl)-7-(thiazol-2-yl)-5-((5-(trifluoro-methyl)pyridin-2-yl)oxy) benzo[d] oxazole] | A (a % remaining rate of 75% or more) | < 100 nM | –
Fc1ccc(-c2cc(Cl)c(OC(F)(F)F)c3nc(N4CC5CCC(C4)N5)oc23)nc1 [Example 10, 2-(3,8-Diazabicyclo[3.2.1]octan-3-yl)-5-chloro-7-(5-fluoropyridin-2-yl)-4-(trifluoromethoxy)benzo[d]oxazole] | A (a % remaining rate of 75% or more) | – | < 100 nM
OCC(F)(F)Oc1ccc(-c2nccs2)c2oc(N3CC4CC(C3)N4O)nc12 [Example 374, 3-(4-(1,1-difluoro-2-hydroxyethoxy)-7-(thiazol-2-yl)benzo [d]oxazol-2-yl)-3,6-diazabicyclo[3.1.1] heptan-6-ol] | B (60% or more and less than 75%) | < 100 nM | –
O=C(N1CCOCC1)C(F)(F)Oc1ccc(-c2nccs2)c2oc(N3CC4CC(C3)N4)nc12 [Example 409, 2-((2-(3,6-diazabicyclo [3.1.1]heptan-3-yl)-7-(thiazol-2-yl)benzo[d]oxazol-4-yl)oxy)-2,2-difluoro-1-morpholino-ethan-1-one] | B (60% or more and less than 75%) | < 100 nM | –
OCC(F)(F)Oc1ccc(-c2ccccn2)c2oc(N3CC4CC(C3)N4)nc12 [Example 315, 2-((2-(3,6-Diazabicyclo[3.1.1]heptan-3-yl)-7-(pyridin-2-yl)benzo[d]oxazol-4-yl)oxy)-2,2-difluoroethan-1-ol] | A (a % remaining rate of 75% or more) | – | < 100 nM
O=C(NCCO)C(F)(F)Oc1ccc(-c2nccs2)c2oc(N3CC4CC(C3)N4)nc12 [Example 411, 2-((2-(3,6-diazabicyclo [3.1.1]heptan-3-yl)-7-(thiazol-2-yl)benzo[d]oxazol-4-yl)oxy)-2,2-difluoro-N-(2-hydroxy-ethyl) acetamide] | A (a % remaining rate of 75% or more) | < 100 nM | –
